Assay results published in patent US20220331301A1, “CYSTIC FIBROSIS TRANSMEMBRANE CONDUCTANCE REGULATOR MODULATORS FOR TREATING AUTOSOMAL RESESSIVE POLYCYSTIC KIDNEY DISEASE” (The Johns Hopkins University, priority 2021, published 2022).

Tested on: Pkhd1^del4/del4 cholangiocytes
Experiment: Cyst growth of cholangiocytes on matrigel (3D culture)
Type: cell-based, mice
Details: for cyst growth / cyst area: 10 μM continuous, cysts induced with Forskolin (10 μM)
Experimental: (§1) Note that the cysts treated with forskolin (for) grew larger. […] Note that the cysts treated with forskolin (for) grew larger. […] FIG. 3C for 1 wk. […] Cysts were induced with Forskolin (10 μM) for 24 hours prior to study. Columns represent means±standard error (SEM). **P<0.01 ****P<0.0001 (for all graphs). Statistical analysis was performed using an unpaired two-tailed Student's t-test;
as §1, with “4C” for “3C”
But cysts do develop from the Pkhd1del4/del4 cholangiocytes. Cyst growth is accelerated by forskolin (for). […] Yanda et al., 2018. The dosage of VX-809 injected was lower than the human pediatric dose, which is 500 mg of Lumacaftor per day; the adult dose is 800 mg/day.
(Methods and cells provided by the Yale O'Brian Center) To create the cholangiocyte cultures PKhd1del/4/del4, Garcia-Gonzalez et al., 2007, animals were crossed with mice transgenic for the Sv40 large T Antigen (strain name SV40 T-antigen JAX strain #002233). Segments of intrahepatic bile ducts were microdissected from livers perfused via the portal vein with molten agarose containing toluidine blue to mark the veins. The liver parenchyma was stripped until the biliary tree was identified and the bile duct units were seeded onto rat type I collagen coated plates. Cells were cultured under non-permissive conditions in the following medium: DMEM/F12 with 5% fetal bovine serum, 10 μL/mL insulin-transferrin selenium, 3.4 μg/mL triiodothyronine, 50,000 U penicillin/streptomycin under humidified conditions at 37° C. in 5% CO2. After one week, the cells were cultured under permissive conditions in the presence of 10 U of interferon-γ at 33° C. in 5% CO2. When confluent, cells were passaged by digesting the collagen slab below the cells (60 min; 37° C.; DMEM/F12 with 2 mg/mL dispase and 1 mg/mL collagenase type 11), then washed twice in PBS and plated onto collagen coated support systems. Clonal cell lines were generated by single cell isolation. Cells were differentiated for 10 days at 37° C. without interferon-γ for experimental use.

`CCOc1ccc2c(-c3cccc(F)c3)nn(CC(=O)N(C)c3ccc4nc(C)oc4c3)c(=O)c2c1` [FDL 169] was tested, and the “cyst growth in 3D culture” value (Pkhd1del4/del4 cholangiocytes, time not stated) was “reduces growth”, the “cyst growth / cyst area” value (monitored for 1 week) was “reduced cyst growth in the presence of forskolin” and the “cyst growth / cyst area” value (monitored for 48 hrs) was “reduced cyst growth in the presence of forskolin”.
